No end group written: not given here.
How the values were obtained:
[1] = Liposome leakage assay (carboxyfluorescein release); details: for CF release from liposomes: 10 mM Tris-buffer
Description: The liposomes investigated were anionic (DOPE/DOPG 75/25 mol/mol). DOPG (1,2-Dioleoyl-sn-Glycero-3-Phosphoglycerol, monosodium salt), and DOPE (1,2-dioleoyl-sn-Glycero-3-phoshoetanolamine) were all from Avanti Polar Lipids (Alabaster, USA) and of >99% purity. Due to the long, symmetric and unsaturated acyl chains of these phospholipids, several methodological advantages are reached. In particular, membrane cohesion is good, which facilitates very stable, unilamellar, and largely defect-free liposomes (observed from cryo-TEM) and well defined supported lipid bilayers (observed by ellipsometry and AFM), allowing detailed values on leakage and adsorption density to be obtained. The lipid mixtures were dissolved in chloroform, after which solvent was removed by evaporation under vacuum overnight. Subsequently, 10 mM Tris buffer, pH 7.4, was added together with 0.1 M carboxyfluorescein (CF) (Sigma, St. Louis, USA). After hydration, the lipid mixture was subjected to eight freeze-thaw cycles consisting of freezing in liquid nitrogen and heating to 60° C. Unilamellar liposomes of about Ø140 nm were generated by multiple extrusions through polycarbonate filters (pore size 100 nm) mounted in a LipoFast miniextruder (Avestin, Ottawa, Canada) at 22° C. Untrapped CF was removed by two subsequent gel filtrations (Sephadex G-50, GE Healthcare, Uppsala, Sweden) at 22° C., with Tris buffer as eluent. CF release from the liposomes was determined by monitoring the emitted fluorescence at 520 nm from a liposome dispersion ([…] in 10 mM Tris, pH 7.4). An absolute leakage scale was obtained by disrupting the liposomes at the end of each experiment through addition of 0.8 mM Triton X-100 (Sigma-Aldrich, St. Louis, USA). A SPEX-fluorolog 1650 0.22-m double spectrometer (SPEX Industries, Edison, USA) was used for the liposome leakage assay in Tris buffer in the absence and presence of liposomes under conditions described above. Measurements were performed in triplicate at 37° C.
The liposomes investigated were either zwitterionic (DOPC/cholesterol 60/40 mol/mol or DOPC without cholesterol) or anionic (DOPE/DOPG 75/25 mol/mol). DOPG (1,2-Dioleoyl-sn-Glycero-3-Phosphoglycerol, monosodium salt), DOPC (1,2-dioleoyl-sn-Glycero-3-phoshocholine), and DOPE (1,2-dioleoyl-sn-Glycero-3-phoshoetanolamine) were all from Avanti Polar Lipids (Alabaster, USA) and of >99% purity, while cholesterol (>99% purity), was from Sigma-Aldrich (St. Louis, USA). Due to the long, symmetric and unsaturated acyl chains of these phospholipids, several methodological advantages are reached. […] CF release from the liposomes was determined by monitoring the emitted fluorescence at 520 nm from a liposome dispersion (10 mM lipid in 10 mM Tris, pH 7.4). […]

[2] = tested on: P. aeruginosa; test: Electron microscopy of peptide-treated bacteria; type: cell-based; details: 30 μM, 2 h, 37° C.
Method: (A) Permeabilizing effects of peptides on E. coli. Bacteria were incubated with the NLF20 and permeabilization was assessed using the impermeant probe FITC. (B) Electron microscopy analysis. P. aeruginosa and S. aureus bacteria were incubated for 2 h at 37° C. with 30 μM of NLF20 and visualized by negative staining. LL-37 is shown for comparison. Scale bar represents 1 μm. Control; Buffer control.

[3] = tested on: human blood; test: Hemolysis in human blood infected by bacteria; type: cell-based; details: peptide dose of 120 μM
Method: (A) Antibacterial effects of NLF20 in presence of the indicated bacteria in human blood (made 50% in PBS) are presented. The indicated microbes (2×10^8 cfu/ml) were added to 50% citrate blood, followed by addition of peptide at 30, 60 or 120 μM. The number of cfu was determined after an incubation period of 1 h. (B) In an identical setup, hemolysis effects were studied. The bacteria were added to 50% citrate blood, followed by addition of peptide. Hemolysis was assessed after 1 hour.
In the experiments with blood infected by bacteria, citrate-blood was diluted (1:1) with PBS.

[4] = tested on: RAW 264.7 macrophages; test: Cytokines in supernatants of LPS-stimulated macrophages; type: cell-based, mouse; details: 10 ng/ml E. coli LPS
Method: RAW 264.7 macrophages were stimulated with 10 ng/ml E. coli LPS in combination with indicated concentrations of the two peptides. (B) Similar as above, but using P. aeruginosa LPS(C) KYE28 reduced TNF-αproduction, MCP-1 and IL-10 production in macrophages. RAW 264. 7 cells were stimulated with 10 ng/ml E. coli LPS and cytokines were analysed in the cell supernatants
The cytokines IL-6, IL-10, MCP-1, INF-γ, and TNF-α were measured in cell culture supernatants from RAW264.7 cells and plasma from mice injected with LPS or P. aeruginosa (with or without peptide treatment) using the Cytometric bead array; Mouse Inflammation Kit (Becton Dickinson AB) according to the manufacturer's instructions. All plasma samples were stored at −20° C. before the analysis.

NLFRKLTHRLFRRNFGYTLR [NLF20]
Time within which ~80% of the maximal CF release occurred [1]: 5 to 10 min
CF release from liposomes [1]: caused CF release
Membrane damage by electron microscopy [2]: extensive membrane damage
Accompanying hemolysis in infected human blood [3]: ≤ 2%

KYEITTIHNLFRKLTHRLFRRNFGYTLR [KYE28]
IL-10 production [4]: reduced
MCP-1 production [4]: reduced
TNF-α production [4]: reduced

KYEITTIHNLFRKLTHRLFRR [KYE21]
Time within which ~80% of the maximal CF release occurred [1]: 5 to 10 min
CF release from liposomes [1]: caused CF release

Source: US9169315B2, “Heparin cofactor II fragments with anti-inflammatory and anti-coagulant activity” (XIMMUNE AB, priority 2009, dated 2015)
